Test results reported in patent US7932262B2 (Novartis AG, priority 2006, dated 2011).

Assays:
PC-3 cells = assay: Cell Proliferation Assay (Cell Titer Glo), PC-3 cell line; type: cell-based; conditions: Homo sapiens, PC-3, Cell Proliferation Assay, PC3; read-out: CPEC50 PC3
In short: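 Cell Titer Glo luminescence, read after fresh medium replaced the dosing medium, gave viability of PC-3 cells plated at 1000 cells/well. Compounds, 1:3 serially diluted in DMSO at 500× and then in medium, were added after 3-5 h adhesion and incubated 3 days at 37° C.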

PDK1 kinase = molecular target: T1, PDK1 kinase (Homo sapiens, UniProt O15530); assay: PDK1 Kinase Alpha Screen Assay; type: biochemical; conditions: PDK1 Kinase Alpha Screen Assay; read-out: PDK1 IC50
T1 sequence (O15530 1-556): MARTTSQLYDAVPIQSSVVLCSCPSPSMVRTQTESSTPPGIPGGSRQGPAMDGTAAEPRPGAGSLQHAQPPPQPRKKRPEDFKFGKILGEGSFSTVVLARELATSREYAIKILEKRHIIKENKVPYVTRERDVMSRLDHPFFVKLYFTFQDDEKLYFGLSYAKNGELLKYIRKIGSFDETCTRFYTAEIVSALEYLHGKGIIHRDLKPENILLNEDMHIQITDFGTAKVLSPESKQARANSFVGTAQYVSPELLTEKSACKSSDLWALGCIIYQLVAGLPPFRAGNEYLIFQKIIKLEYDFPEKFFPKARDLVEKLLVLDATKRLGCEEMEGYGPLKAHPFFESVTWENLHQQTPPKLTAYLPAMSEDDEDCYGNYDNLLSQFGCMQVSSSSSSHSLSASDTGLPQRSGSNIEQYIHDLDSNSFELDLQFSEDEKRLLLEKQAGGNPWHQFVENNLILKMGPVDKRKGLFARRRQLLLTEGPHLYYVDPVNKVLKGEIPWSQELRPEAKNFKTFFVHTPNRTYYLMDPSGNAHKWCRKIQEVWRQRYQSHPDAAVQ
In short: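 PDK1, 10 uM ATP, 50 nM biotin-PDK1-4 peptide; 50 mM Tris pH 7.5, 10 mM MgCl2, 0.1% BSA, 0.01% Tween-20, 2 mM DTT, 2.5% DMSO; 3-18 h. EDTA stop; AlphaScreen, phospho-Ser/Thr antibody, overnight RT.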

| EC50 (PC-3 cells) | IC50 (PDK1 kinase) | SMILES |
| --- | --- | --- |
| < 5 µM | < 5 µM | O=S(=O)(c1cccc(Nc2ncc3cccc(-c4ccc(NCCN5CCCC5)nc4)c3n2)c1)N1CCOCC1 [Compound 399, N-(3-(morpholinosulfonyl)phenyl)-8-(6-(2-(pyrrolidin-1-yl)ethylamino)pyridin-3-yl)quinazolin-2-amine] |
| < 5 µM | < 5 µM | CNC(=O)Cc1ccc(Nc2ncc3cccc(-c4ccc(NCCN5CCCC5)nc4)c3n2)cc1 [Compound 400, N-methyl-2-(4-(8-(6-(2-(pyrrolidin-1-yl)ethylamino)pyridin-3-yl)quinazolin-2-ylamino)phenyl)acetamide] |
| < 5 µM | < 5 µM | CNC(=O)Cc1cccc(Nc2ncc3cccc(-c4ccc(NCCN5CCCC5)nc4)c3n2)c1 [Compound 401, N-methyl-2-(3-(8-(6-(2-(pyrrolidin-1-yl)ethylamino)pyridin-3-yl)quinazolin-2-ylamino)phenyl)acetamide] |
| 5 to 10 µM | < 5 µM | CS(=O)(=O)c1cccc(Nc2ncc3cccc(-c4ccc(NCCN5CCCC5)nc4)c3n2)c1 [Compound 402, N-(3-(methylsulfonyl)phenyl)-8-(6-(2-(pyrrolidin-1-yl)ethylamino)pyridin-3-yl)quinazolin-2-amine] |
| < 5 µM | < 5 µM | O=C(c1ccc(Nc2ncc3cccc(-c4ccc(NCCN5CCCC5)nc4)c3n2)cc1)N1CCOCC1 [Compound 403, morpholino(4-(8-(6-(2-(pyrrolidin-1-yl)ethylamino)pyridin-3-yl)quinazolin-2-ylamino)phenyl)methanone] |
| < 5 µM | < 5 µM | NS(=O)(=O)c1ccc(Nc2ncc3cccc(-c4cnc(NCCN5CCCC5)c(C(F)(F)F)c4)c3n2)cc1 [Compound 404, 4-(8-(6-(2-(pyrrolidin-1-yl)ethylamino)-5-(trifluoromethyl)pyridin-3-yl)quinazolin-2-ylamino)benzenesulfonamide] |
| < 5 µM | < 5 µM | COc1ccc(Oc2cccc3cnc(Nc4ccc(S(N)(=O)=O)cc4)nc23)cn1 [Compound 410, 4-(8-(6-methoxypyridin-3-yloxy)quinazolin-2-ylamino)benzenesulfonamide] |
| < 5 µM | < 5 µM | NS(=O)(=O)c1ccc(Nc2ncc3cccc(Oc4ccc(F)nc4)c3n2)cc1 [Compound 413, 4-(8-(6-fluoropyridin-3-yloxy)quinazolin-2-ylamino)benzenesulfonamide] |
| 5 to 10 µM | 5 to 10 µM | Nc1ccc(S(=O)(=O)N(CCN2CCCC2)c2ncc3cccc(OC4CCNCC4)c3n2)cc1 [Compound 422, 4-amino-N-(8-(piperidin-4-yloxy)quinazolin-2-yl)-N-(2-(pyrrolidin-1-yl)ethyl)benzenesulfonamide] |
| < 5 µM | < 5 µM | CN1CCN(c2ccc(-c3cccc4cnc(Nc5ccc(N6CCOCC6)nc5)nc34)cn2)CC1 [Compound 423, 8-(6-(4-methylpiperazin-1-yl)pyridin-3-yl)-N-(6-morpholinopyridin-3-yl)quinazolin-2-amine] |
| < 5 µM | < 5 µM | c1cc(-c2ccc(NCCN3CCCC3)nc2)c2nc(Nc3ccc(N4CCOCC4)nc3)ncc2c1 [Compound 424, N-(6-morpholinopyridin-3-yl)-8-(6-(2-(pyrrolidin-1-yl)ethylamino)pyridin-3-yl)quinazolin-2-amine] |
| < 5 µM | < 5 µM | O=S(=O)(c1ccc(Nc2ncc3cccc(-c4ccc(NCCN5CCCC5)nc4)c3n2)cc1)N1CCOCC1 [Compound 425, N-(4-(morpholinosulfonyl)phenyl)-8-(6-(2-(pyrrolidin-1-yl)ethylamino)pyridine-3-yl)quinazolin-2-amine] |
| < 5 µM | < 5 µM | c1ccc(Nc2ncc3cccc(-c4ccc(NCCN5CCCC5)nc4)c3n2)cc1 [Compound 426, N-phenyl-8-(6-(2-(pyrrolidin-1-yl)ethylamino)pyridin-3-yl)quinazolin-2-amine] |
